In ChEMBL document CHEMBL4483862, “Open-source discovery of chemical leads for next-generation chemoprotective antimalarials” (2018):
pIC50: −log10 of the molar value.

Test system: Plasmodium berghei
Assay: Luciferase/luciferin-expressing antifolate-resistant parasites were used to infect a culture of HepG2 cells that were pre-incubated with compounds. Infected hepatocytes emit light due to the luciferase reaction. Assay results are presented as the percent inhibition of light emission compared to control. […]
Assay type: functional
Settings: sporozoite; for IC90: read-out: LUCIFERASE INFECTION ASSAY - IC90

| Compound | IC90 [µM] | further results |
| --- | --- | --- |
| Oc1ccc(/C=C/c2ccc3cccc(O)c3n2)cc1Br | 7.7 | pIC50 (PBLUC_HILL_SLOPE 43.7, PBLUC_R_SQUARED 0.404, read-out: LUCIFERASE INFECTION ASSAY - IC50): 5.14 |
| COc1cc(CNC2CCCC2)c(Br)cc1OC1CCCC1 | > 8.15 | pIC50 (PBLUC_HILL_SLOPE 45, PBLUC_R_SQUARED 0.216, read-out: LUCIFERASE INFECTION ASSAY - IC50): 5.09 |
| Nc1ncc(-c2ccc(-c3ccccc3)cc2F)cc1-c1ccccc1F | > 9.21 | pIC50 (PBLUC_HILL_SLOPE 34.9, PBLUC_R_SQUARED 0.254, read-out: LUCIFERASE INFECTION ASSAY - IC50): 5.05 |
| O=C1c2ccccc2O[C@@H](c2ccc(Cl)cc2)[C@@H]1O | > 12 | pIC50 (PBLUC_HILL_SLOPE 64.7, PBLUC_R_SQUARED 0.241, read-out: LUCIFERASE INFECTION ASSAY - IC50): 4.92 |
| COc1cc(OC)nc(Nc2nc(C(N)C3CCCCC3)cs2)n1 (stereo not given) | > 9.44 | pIC50 (PBLUC_HILL_SLOPE 67.6, PBLUC_R_SQUARED 0.122, read-out: LUCIFERASE INFECTION ASSAY - IC50): 5.04 |
| Cc1c(NC(=O)c2c(F)cccc2F)cc2c(c1[N+](=O)[O-])C(C)(C)CC2(C)C | > 8.5 | pIC50 (PBLUC_HILL_SLOPE 39, PBLUC_R_SQUARED 0.724, read-out: LUCIFERASE INFECTION ASSAY - IC50): < 5.07 |
| O=S(=O)(c1ccc(Cl)cc1)c1nc(/C=C/c2ccccc2)oc1NCc1ccco1 | 9.82 | pIC50 (PBLUC_HILL_SLOPE 32.9, PBLUC_R_SQUARED 0.0875, read-out: LUCIFERASE INFECTION ASSAY - IC50): 5.04 |
| Cc1ccc(-c2nc(CN3C(=O)NC4(CCCCCC4)C3=O)cs2)cc1 | > 10 | pIC50 (PBLUC_HILL_SLOPE 31.5, PBLUC_R_SQUARED 0.344, read-out: LUCIFERASE INFECTION ASSAY - IC50): 5.00 |
| Cc1cc(N2CCN(CC(=O)N(C)C)CC2)nc2c(C(C)C)cccc12 | 6.13 | pIC50 (PBLUC_HILL_SLOPE 64.7, PBLUC_R_SQUARED 0.2, read-out: LUCIFERASE INFECTION ASSAY - IC50): 5.23 |
| CCCCN1C(=O)C(=O)N(CC(=O)Nc2sc(Cc3ccc4c(c3)OCO4)c(C)c2C(=O)OCC)C1=O | 0.0425 | pIC50 (PBLUC_HILL_SLOPE 37.8, PBLUC_R_SQUARED 0.839, read-out: LUCIFERASE INFECTION ASSAY - IC50): 7.40 |
| Cc1nc(Sc2ncnc3sc4c(c23)CCC4)sc1CC(N)=O | 1.96 | pIC50 (PBLUC_HILL_SLOPE 51.2, PBLUC_R_SQUARED 0.477, read-out: LUCIFERASE INFECTION ASSAY - IC50): 5.73 |
| CCCn1c(NC(=O)C2CCCN2C(=O)C23CC4CC(CC(C4)C2)C3)nc2ccccc21 (stereo not given) | 9.69 | pIC50 (PBLUC_HILL_SLOPE 41.1, PBLUC_R_SQUARED 0.0887, read-out: LUCIFERASE INFECTION ASSAY - IC50): 5.04 |
| CN1CCN(c2nc(-c3c[nH]c4ccccc34)c(-c3ccccc3)s2)CC1 | > 10 | pIC50 (PBLUC_HILL_SLOPE 45.6, PBLUC_R_SQUARED 0.243, read-out: LUCIFERASE INFECTION ASSAY - IC50): 5.00 |
| Cc1nc(NC(=O)c2cn3ccccc3n2)sc1Cc1ccc2c(c1)OCO2 | 3.5 | pIC50 (PBLUC_HILL_SLOPE 53.8, PBLUC_R_SQUARED 0.294, read-out: LUCIFERASE INFECTION ASSAY - IC50): 5.47 |
| COc1cccc(-c2cc3c(Nc4ccccc4)nccc3[nH]2)c1 | 3.51 | pIC50 (PBLUC_HILL_SLOPE 41.1, PBLUC_R_SQUARED 0.519, read-out: LUCIFERASE INFECTION ASSAY - IC50): 5.48 |
| CC(C)CC(N)c1csc(NC(=O)Nc2ccc(OC(F)(F)F)cc2)n1 (stereo not given) | 5.1 | pIC50 (PBLUC_HILL_SLOPE 53.9, PBLUC_R_SQUARED 0.0664, read-out: LUCIFERASE INFECTION ASSAY - IC50): 5.31 |
| COc1ccccc1C(=O)Nc1ccc2c(c1)nc(CCN1CCCC1)n2C | > 8.72 | pIC50 (PBLUC_HILL_SLOPE 41.2, PBLUC_R_SQUARED 0.16, read-out: LUCIFERASE INFECTION ASSAY - IC50): 5.08 |
| CC(=O)Nc1cccc2c1CCN(c1ncnc3sccc13)C2 | 3.46 | pIC50 (PBLUC_HILL_SLOPE 34.6, PBLUC_R_SQUARED 0.49, read-out: LUCIFERASE INFECTION ASSAY - IC50): 5.49 |
| COc1cc(Br)cc(/C=N/NC(=S)NC(C)(C)C)c1O | 6.76 | pIC50 (PBLUC_HILL_SLOPE 63.8, PBLUC_R_SQUARED 0.286, read-out: LUCIFERASE INFECTION ASSAY - IC50): 5.19 |
| OC[C@H]1O[C@@H](c2nc3cc(-c4nc(-c5ccccc5F)no4)ccc3[nH]2)C[C@@H]1O | 2.9 | pIC50 (PBLUC_HILL_SLOPE 37.1, PBLUC_R_SQUARED 0.287, read-out: LUCIFERASE INFECTION ASSAY - IC50): 5.56 |

| Compound | IC90 [µM] | further results |
| --- | --- | --- |
| Cc1nc(CSCC(=O)Nc2nc(-c3ccccn3)cs2)cs1 | > 10 | pIC50 (PBLUC_HILL_SLOPE 39.1, PBLUC_R_SQUARED 0.364, read-out: LUCIFERASE INFECTION ASSAY - IC50): 5.01 |
| CN(C)S(=O)(=O)c1ccc(CNc2ccnc3cc(Cl)ccc23)s1 | 3.6 | pIC50 (PBLUC_HILL_SLOPE 38.6, PBLUC_R_SQUARED 0.0785, read-out: LUCIFERASE INFECTION ASSAY - IC50): 5.47 |
| Cc1cc(-c2cc(C(=O)N3CCCN(C)c4nc5ccccc5nc43)c3c(C)noc3n2)c(C)s1 | 0.385 | pIC50 (PBLUC_HILL_SLOPE 42.2, PBLUC_R_SQUARED 0.606, read-out: LUCIFERASE INFECTION ASSAY - IC50): 6.44 |
| CC(C)N(C(=O)CSc1ccc(F)c(F)c1)c1ccc(Nc2ccccc2)cc1 | 6.35 | pIC50 (PBLUC_HILL_SLOPE 46.2, PBLUC_R_SQUARED 0.0491, read-out: LUCIFERASE INFECTION ASSAY - IC50): 5.22 |
| Cc1nn(C)c(NC(=O)c2ccc(Cl)cc2)c1Br | > 10 | pIC50 (PBLUC_HILL_SLOPE 41, PBLUC_R_SQUARED 0.305, read-out: LUCIFERASE INFECTION ASSAY - IC50): < 5.00 |
| COc1ncccc1C(=O)Nc1cc(Cl)cc(Cl)c1 | 3.83 | pIC50 (PBLUC_HILL_SLOPE 56, PBLUC_R_SQUARED 0.566, read-out: LUCIFERASE INFECTION ASSAY - IC50): 5.43 |
| COc1ccc(Cl)cc1C(=O)NNC(=O)CSc1nccn1-c1ccc(C)c(C)c1 | 6.58 | pIC50 (PBLUC_HILL_SLOPE 46.1, PBLUC_R_SQUARED 0.54, read-out: LUCIFERASE INFECTION ASSAY - IC50): 5.20 |
| COc1ccc(C2CCCCCN2C(=O)CCc2c(C)[nH]c(-c3ccccc3)nc2=O)cc1 (stereo not given) | 3.45 | pIC50 (PBLUC_HILL_SLOPE 57.7, PBLUC_R_SQUARED 0.487, read-out: LUCIFERASE INFECTION ASSAY - IC50): 5.48 |
| NC(CCc1ccccc1)c1csc(NC(=O)Nc2ccccc2)n1 (stereo not given) | > 9.36 | pIC50 (PBLUC_HILL_SLOPE 42.7, PBLUC_R_SQUARED 0.194, read-out: LUCIFERASE INFECTION ASSAY - IC50): 5.04 |
| CC(C)(C)c1ccc(-c2nnc(SCc3ccccc3Cl)n2-c2cccc(C(F)(F)F)c2)cc1 | > 6.57 | pIC50 (PBLUC_HILL_SLOPE 55, PBLUC_R_SQUARED 0.768, read-out: LUCIFERASE INFECTION ASSAY - IC50): 5.18 |
| Cc1ccn2cc(C(=O)Nc3nc(C(C)C)cs3)nc2c1 | > 10 | pIC50 (PBLUC_HILL_SLOPE 42, PBLUC_R_SQUARED 0.63, read-out: LUCIFERASE INFECTION ASSAY - IC50): 5.02 |
| CCCNC(=O)c1c(NC(=O)c2ccc(OCC)cc2)nc2ccccn12 | 8.98 | pIC50 (PBLUC_HILL_SLOPE 45.3, PBLUC_R_SQUARED 0.241, read-out: LUCIFERASE INFECTION ASSAY - IC50): 5.07 |
| Cc1cc(NC(=O)CNC(c2ccc(C3CCCCC3)cc2)C(C)C)n(C2CCS(=O)(=O)C2)n1 (stereo not given) | 9.9 | pIC50 (PBLUC_HILL_SLOPE 35.5, PBLUC_R_SQUARED 0.454, read-out: LUCIFERASE INFECTION ASSAY - IC50): 5.03 |
| Cc1cccc(C(=O)OC(C)C(=O)Nc2sccc2C#N)c1N (stereo not given) | > 10 | pIC50 (PBLUC_HILL_SLOPE 38.2, PBLUC_R_SQUARED 0.283, read-out: LUCIFERASE INFECTION ASSAY - IC50): 5.00 |
| C=CCN(c1ccccc1OC)S(=O)(=O)c1cccc(C(=O)Oc2c(Cl)cc(Cl)c3ccc(C)nc23)c1 | 6.11 | pIC50 (PBLUC_HILL_SLOPE 68.6, PBLUC_R_SQUARED 0.538, read-out: LUCIFERASE INFECTION ASSAY - IC50): 5.23 |
| Cc1nc2ccccc2n1CCNC(=O)c1ccc(Cl)cc1NC(=O)c1cccs1 | 4.77 | pIC50 (PBLUC_HILL_SLOPE 48.3, PBLUC_R_SQUARED 0.528, read-out: LUCIFERASE INFECTION ASSAY - IC50): 5.34 |
| CN1N=C2c3ccccc3CCCC2C1c1ccc(C(C)(C)C)cc1 (stereo not given) | 3.51 | pIC50 (PBLUC_HILL_SLOPE 38, PBLUC_R_SQUARED 0.372, read-out: LUCIFERASE INFECTION ASSAY - IC50): 5.48 |
| CN(C)CCNC(=O)c1ccc(-c2cnc3c(Nc4cccc(C(F)(F)F)c4)nccn23)cc1 | > 7.04 | pIC50 (PBLUC_HILL_SLOPE 63.8, PBLUC_R_SQUARED 0.339, read-out: LUCIFERASE INFECTION ASSAY - IC50): 5.16 |
| CCOc1ccccc1NC(=O)c1nc(-c2ccccc2)n(-c2ccccc2)n1 | 3.4 | pIC50 (PBLUC_HILL_SLOPE 61.7, PBLUC_R_SQUARED 0.143, read-out: LUCIFERASE INFECTION ASSAY - IC50): 5.48 |
| Cc1[nH]c(-c2ccccn2)nc(=O)c1CC(=O)NC1CCCCCCC1 | 1.71 | pIC50 (PBLUC_HILL_SLOPE 61.7, PBLUC_R_SQUARED 0.378, read-out: LUCIFERASE INFECTION ASSAY - IC50): 5.78 |
